Assays:
chymotrypsin = assay: Enzymatic hydrolysis assay with chymotrypsin; type: in vitro ADME; conditions: isolated enzyme chymotrypsin
HIV-1 = conditions: across the strains tested, compared with 1

Enfuvirtide was tested. Which IC50 (HIV-1 SF162) did it give?
Its IC50 is 0.0239 ± 0.0021 µM.

And the IC50 (HIV-1 MN)?
Its IC50 is 0.0065 ± 0.0006 µM.

What about the IC50 (HIV-1 CZA97) of the same substance?
The IC50 was 0.941 ± 0.328 µM.

What about the IC50 (HIV-1 DU422) of the same substance?
Its IC50 is 0.056 ± 0.0016 µM.

With MTWEEWDKKIEEYTKKIEELIγKS [Peptide 3] as the substance, how does the “% remaining after 10 mins” value (chymotrypsin) read?
Its value is 17.6%.

And the “increase in antiviral activity relative to peptide 1” value (HIV-1)?
The value was under 2 fold.

“MTWXEWDXKIEEYTKKIEELIγKS (sidechain bridge or staple) [Peptide 4]” was tested. Which “% remaining after 10 mins” value (chymotrypsin) did it give?
Its value is 57.2%.

Reference: publication PMC6209519 (Organic & biomolecular chemistry, 2018)
